{"source": "ChEMBL document CHEMBL5029167", "about": "“Development of Asialoglycoprotein-Mediated Hepatocyte-Targeting Antitumor Prodrugs Triggered by Glutathione” (J Med Chem, 2021)", "key": {"[1]": {"assay": "Stability of compound in GSH measured upto 24 hrs", "type": "physicochemical", "conditions": "GSH (glutathione), read-out: Stability; call rule not given here"}, "[2]": {"assay": "Drug uptake in human A549 cells at 10 uM after 15 mins by confocal scanning microscopic analysis", "type": "ADME, cell-based", "conditions": "a549, 0.25 h"}, "[3]": {"assay": "Drug uptake in human HeLa cells at 10 uM after 15 mins by confocal scanning microscopic analysis", "type": "ADME, cell-based", "conditions": "0.25 h"}, "[4]": {"assay": "Drug distribution in Kunming mouse liver at 6 mg/kg, iv measured after 3 hrs by confocal scanning microscopic analysis", "type": "ADME, organism-based", "conditions": "in vivo"}, "[5]": {"assay": "Drug uptake in human HepG2 cells pretreated with galactose for 30 mins followed by compound addition and measured after 15 mins by confocal scanning microscopic analysis", "type": "ADME, cell-based", "conditions": "hepg2, 0.75 h, time 45 min"}, "[6]": {"assay": "Drug uptake in human HepG2 cells at 10 uM after 15 mins by confocal scanning microscopic analysis", "type": "ADME, cell-based", "conditions": "hepg2, 0.25 h"}, "[7]": {"assay": "Drug uptake in human SGC-7901 cells at 10 uM after 15 mins by confocal scanning microscopic analysis", "type": "ADME, cell-based", "conditions": "sgc-7901, 0.25 h"}, "HepG2": {"tested_on": "HepG2", "assay": "Cytotoxicity against human HepG2 cells at 10 to 80 uM after 24 hrs", "type": "cell-based", "conditions": "hepg2, 24 h, dose 10-80 µM"}, "[8]": {"assay": "Drug distribution in Kunming mouse liver at 8.4 mg/kg, iv measured after 3 hrs by confocal scanning microscopic analysis", "type": "ADME, organism-based", "conditions": "in vivo"}}}
{"molecule": "C=C[C@]1(C)CC[C@@H](C(=C)Cn2cc(CN3C(=O)c4cccc5c(N6CCN(C(=O)OCCCCCCOCc7cn([C@@H]8O[C@H](CO)[C@H](O)[C@H](O)[C@H]8O)nn7)CC6)ccc(c45)C3=O)nn2)C[C@H]1C(=C)C", "values": [{"measurement": "remaining at 24 h", "setting": "[1]", "value": 99, "unit": "%"}]}
{"molecule": "C=C[C@]1(C)CC[C@@H](C(=C)Cn2cc(CN3C(=O)c4cccc5c(N6CCN(C(=O)OCCSSCCOCc7cn([C@@H]8O[C@H](CO)[C@H](O)[C@H](O)[C@H]8O)nn7)CC6)ccc(c45)C3=O)nn2)C[C@H]1C(=C)C", "values": [{"measurement": "Drug uptake", "setting": "[2]", "value": "Active"}, {"measurement": "Drug uptake", "setting": "[3]", "value": "Active"}, {"measurement": "Drug uptake", "setting": "[4]", "value": "Active"}, {"measurement": "Drug uptake", "setting": "[5]", "value": "Not Active"}, {"measurement": "Drug uptake", "setting": "[6]", "value": "Active"}, {"measurement": "Drug uptake", "setting": "[7]", "value": "Active"}]}
{"molecule": "C=C[C@]1(C)CC[C@@H](C(=C)Cn2cc(CN3C(=O)c4cccc5c(N6CCN(C(=O)OCCSSCCOCC(=O)NC(COCc7cn([C@@H]8O[C@H](CO)[C@H](O)[C@H](O)[C@H]8O)nn7)COCc7cn([C@@H]8O[C@H](CO)[C@H](O)[C@H](O)[C@H]8O)nn7)CC6)ccc(c45)C3=O)nn2)C[C@H]1C(=C)C", "values": [{"measurement": "Drug uptake", "setting": "[2]", "value": "Active"}, {"measurement": "Drug uptake", "setting": "[3]", "value": "Active"}, {"measurement": "Activity", "setting": "HepG2", "value": "Non-Toxic"}, {"measurement": "Drug uptake", "setting": "[5]", "value": "Not Active"}, {"measurement": "Drug uptake", "setting": "[6]", "value": "Active"}, {"measurement": "Drug uptake", "setting": "[7]", "value": "Active"}, {"measurement": "Drug uptake", "setting": "[8]", "value": "Active"}]}
